Common to all, as to assay: DTP human tumour cell line panel, 48 h
For experiment [1], the system named is K562.
Experiment [2] concerns SNB-19.
Experiment [3] concerns CAKI-1.
In experiment [4] the test system is NCI-H226.
The subject of experiment [5] is OVCAR-8.
Experiment [6] deals with SF-268.
The test system of experiment [7] is RXF 393.
Experiment [8] has as its system HL-60.
Experiment [9] concerns U-251.
The subject of experiment [10] is SK-MEL-28.
Experiment [11] relates to A549.
For experiment [12], the system named is MDA-N.
The test system of experiment [13] is M14.
The test system of experiment [14] is 786-0.
The test system of experiment [15] is T47D.
Experiment [16] relates to OVCAR-5.
For experiment [17], the system named is SK-OV-3.
The test system of experiment [18] is UACC-257.
In experiment [19] the test system is BT-549.

The structures appear in SMILES notation.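 Step 1: Grow cells in 96-well plates. Step 2: Expose to compound for 48 hours at 5 concentrations. Step 3: Interpolate endpoints linearly; if unreached, use highest concentration. Here, GI50 denotes the concentration required for 50% inhibition of growth.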 Active and inactive are the calls of the source. No stated cut-off is given here; in the data, active = GI50 up to about 1.1 µM and inactive = higher.

As a reminder, the GI50 is the concentration giving 50% growth inhibition. With `O=C1NC(c2cccc3ccccc23)Nc2ccc(Cl)cc21` (stereo unspecified), the 50% growth inhibitory concentration (GI50) in [1] was < 0.0001 µM (active); in experiment [2], 0.00189 µM (active); in experiment [3], 0.00118 µM (active); in experiment [4], 0.00432 µM (active); in experiment [5] it was 0.00935 µM (active); in experiment [6] it was 0.0035 µM (active). Further, the GI50 in [7] was 0.00394 µM (active); in experiment [8], 0.000133 µM (active); in experiment [9], 0.000977 µM (active); in [10] it was < 0.01 µM (active); in experiment [11], 0.00509 µM (active); in experiment [12], < 0.0001 µM (active). Besides, the GI50 in [13] is 0.00115 µM (active); in experiment [14], 0.00193 µM (active); in experiment [15], 20.5 µM (inactive); in [16], 0.0244 µM (active); in experiment [17] it was 0.00105 µM (active).

As for `NC(=O)C12CC3CC(CC(Br)(C3)C1)C2`, the GI50 in experiment [18], in experiment [2], in experiment [3], in experiment [5], in [6] and in [8] was > 100 µM (inactive) in each case. The GI50 in experiment [9], in experiment [10], in [11], in experiment [13], in experiment [14] and in [16] was > 100 µM (inactive) in each case. For the same compound, the GI50 in [17] was > 100 µM (inactive).

As for `COc1ccc(C2=C(Cl)C(=O)O/C2=C\c2ccc(OC)c(Br)c2)cc1Cl`, the GI50 in experiment [1] is 35.2 µM (inactive); in experiment [18] it was > 100 µM (inactive); in experiment [2], 31.8 µM (inactive); in [3], 36.1 µM (inactive); in [5], 22.7 µM (inactive); in experiment [6] it was 16.5 µM (inactive). The GI50 was 18.3 µM (inactive) in experiment [7]; > 100 µM (inactive) in experiment [8]; 14.1 µM (inactive) in experiment [9]; > 100 µM (inactive) in experiment [10]; 33.3 µM (inactive) in experiment [11]; > 100 µM (inactive) in experiment [12]. The GI50 in experiment [13] was 70.8 µM (inactive); in experiment [14] it was 17.2 µM (inactive); in experiment [15], 58.9 µM (inactive); in experiment [16] it was 43.5 µM (inactive); in experiment [17], 37.1 µM (inactive).

Regarding `O=C(c1ccccc1)N1C(=S)N(c2ccccn2)C(=N/c2ccccc2)/C1=N\c1ccccc1`, the GI50 was 7.18 µM (inactive) in [1]; 23 µM (inactive) in experiment [18]; 25.5 µM (inactive) in experiment [2]; 10.5 µM (inactive) in [3]; > 69.3 µM (inactive) in experiment [4]; 8.28 µM (inactive) in experiment [5]. For the same compound, the GI50 in [6] is 24.9 µM (inactive); in experiment [7], 5.11 µM (inactive); in experiment [8] it was 3.66 µM (inactive); in experiment [9] it was 8.11 µM (inactive); in [10] it was 22.3 µM (inactive); in [11], 27.5 µM (inactive). For the same compound, the GI50 in experiment [12] was 11.4 µM (inactive); in [13] it was 55.6 µM (inactive); in [14], 16.7 µM (inactive); in [15], 15.1 µM (inactive); in experiment [16] it was 11.2 µM (inactive); in [17], 43.6 µM (inactive).

In the case of `O=c1cc(-c2ccccc2)[nH]c2cc(F)c(F)cc12`, the GI50 in experiment [1] is 0.29 µM (active); in [18] it was 0.498 µM (active); in experiment [2] it was 0.718 µM (active); in experiment [3] it was > 100 µM (inactive); in [4] it was 1.55 µM (inactive); in [5], 0.824 µM (active). Besides, the GI50 in experiment [6] is 1.45 µM (inactive); in experiment [7], 0.23 µM (active); in experiment [8] it was 0.23 µM (active); in [9], 0.692 µM (active); in experiment [10], 1.72 µM (inactive); in experiment [11] it was 0.463 µM (active). For the same compound, the GI50 was 0.0764 µM (active) in [12]; 0.392 µM (active) in experiment [13]; 0.238 µM (active) in experiment [14]; 1.89 µM (inactive) in [16]; 0.575 µM (active) in [17].

Take `Nc1ncnc2c1ncn2CC(OCP(=O)(O)O)Oc1ccccc1` (stereo unspecified): the GI50 in experiment [1], in experiment [18], in [2], in [3], in [4] and in [6] was > 100 µM (inactive) throughout. Also, the GI50 in experiment [7], in experiment [9], in experiment [10], in experiment [11], in experiment [12] and in [13] was > 100 µM (inactive) in each case. Moreover, the GI50 in [14], in experiment [15], in [16] and in experiment [17] was > 100 µM (inactive) each time.

Consider `Cc1nc2ccc(Br)cc2c(=O)n1-c1nnc(C(C)(C)C)s1`, for which the GI50 in [1], in [18], in [2], in [3], in experiment [4] and in experiment [5] was > 10 µM (inactive) in each case. Besides, the GI50 in experiment [6], in [7], in experiment [8], in experiment [9], in experiment [10] and in [11] was > 10 µM (inactive) throughout. Moreover, the GI50 in experiment [12], in [13], in [14], in [15], in experiment [16] and in experiment [17] was > 10 µM (inactive) each time.

Turning to `COc1ccc(/C=C2\N=C3Sc4c([nH]cnc4=O)N3C2=O)cc1`, the GI50 in experiment [1], in experiment [18], in experiment [2], in [3], in experiment [4] and in experiment [5] was > 100 µM (inactive) in each case. The GI50 in [6], in experiment [7], in experiment [8], in experiment [9], in experiment [10] and in [11] was > 100 µM (inactive) each time. Besides, the GI50 in experiment [12], in experiment [13], in experiment [14], in experiment [15], in experiment [16] and in [17] was > 100 µM (inactive) each time.

In the case of `CCCc1cc(O)c2c(C)c3[nH]c4ccc(Cl)cc4c3c(C)c2n1`, the GI50 in experiment [18] is 2 µM (inactive); in experiment [2], 2.55 µM (inactive); in experiment [3] it was 2 µM (inactive); in [4] it was 2.81 µM (inactive); in [5] it was 2.55 µM (inactive); in experiment [6], 6.71 µM (inactive). Also, the GI50 in experiment [7] is 1.51 µM (inactive); in [8], 1.67 µM (inactive); in experiment [9], 1.69 µM (inactive); in experiment [10] it was 1.46 µM (inactive); in [11], 2.24 µM (inactive); in experiment [12], 1.9 µM (inactive). In addition, the GI50 was 3.1 µM (inactive) in experiment [13], 1.61 µM (inactive) in [14], 1.85 µM (inactive) in experiment [15] and 2.46 µM (inactive) in experiment [16].

In the case of `CCn1ncc2c1nc(-c1ccccc1)c[n+]2[O-]`, the GI50 in [1] is > 100 µM (inactive); in experiment [18], > 100 µM (inactive); in experiment [2], > 100 µM (inactive); in experiment [5], 75 µM (inactive); in [6] it was > 100 µM (inactive); in [10], > 100 µM (inactive). For the same compound, the GI50 is > 100 µM (inactive) in [11]; 77.6 µM (inactive) in [13]; > 100 µM (inactive) in [14]; > 100 µM (inactive) in experiment [15]; > 100 µM (inactive) in [16].

Turning to `CCCc1cn2c(/C=N/NC(=N)N)c(-c3cc([N+](=O)[O-])c(Cl)cc3Cl)nc2s1`, the GI50 was 1.23 µM (inactive) in experiment [1]; 1.66 µM (inactive) in experiment [18]; 1.48 µM (inactive) in experiment [2]; 1.77 µM (inactive) in experiment [3]; 1.82 µM (inactive) in [4]; 1.54 µM (inactive) in [5]. Also, the GI50 in [6] is 1.69 µM (inactive); in [7] it was 1.9 µM (inactive); in [8] it was 1.76 µM (inactive); in experiment [9] it was 1.58 µM (inactive); in experiment [11], 1.48 µM (inactive); in [19], 2.15 µM (inactive). The GI50 in [13] is 1.74 µM (inactive); in experiment [14], 1.58 µM (inactive); in experiment [15] it was 1.38 µM (inactive); in [16], 1.75 µM (inactive); in experiment [17] it was 1.91 µM (inactive).

As to `NC[C@H]1Nc2ccccc2[C@@H](O)C1O` (stereo partly specified), the GI50 in experiment [1], in experiment [18], in experiment [2], in experiment [3], in experiment [4] and in experiment [5] was > 100 µM (inactive) in each case. In addition, the GI50 in experiment [6], in experiment [7], in [8], in experiment [9], in [10] and in experiment [11] was > 100 µM (inactive) in each case. In addition, the GI50 in experiment [12], in [13], in experiment [14], in [15], in [16] and in experiment [17] was > 100 µM (inactive) in each case.

The values are drawn from ChEMBL document CHEMBL1201862, “PubChem BioAssay data set” (2004).
